# Results published in US8741931B2, “Kinase inhibitors” (priority 2007, dated 2014).
# Key:
# Type in all cases: biochemical
# PKC alpha kinase = PKC alpha kinase (Homo sapiens, UniProt P17252); assay: PKC Alpha (coupled enzyme assay); conditions: 130 μM ATP, 4.5 nM PKC alpha
# Experimental: (§1) An assay buffer solution was prepared which consisted of 100 mM HEPES (pH 7.5), 10 mM MgCl2, 25 mM NaCl, 0.1 mM EDTA, 100 μM CaCl2 and 0.01% Brij. […] To 16 μL of this enzyme buffer, in a 384 well plate, was added 1 μL of VRT stock solution in DMSO. The mixture was allowed to equilibrate for 10 mins at 30° C. […] Ki values were calculated from initial rate data by non-linear regression using the Prism software package (Prism 4.0a, Graphpad Software, San Diego, Calif.).
# PKC delta kinase = PKC delta kinase (Homo sapiens, UniProt Q05655); assay: PKC Delta (coupled enzyme assay); conditions: 150 μM ATP, 46 nM PKC delta; read-out: Ki PKC delta
# Experimental: as §1, with “EDTA” for “EDTA, 100 μM CaCl2”
# PKC theta kinase = PKC theta kinase (Homo sapiens, UniProt Q04759); assay: PKC Theta I (coupled enzyme assay, absorbance at 340 nm); conditions: 240 μM ATP, 18 nM PKC theta, absorbance read out
# Experimental: as §1, with “mM EDTA” for “mM EDTA, 100 μM CaCl2”, “To 60” for “To 16”, “added 2” for “added 1”
# PKC theta kinase, sequence (Q04759 whole entry): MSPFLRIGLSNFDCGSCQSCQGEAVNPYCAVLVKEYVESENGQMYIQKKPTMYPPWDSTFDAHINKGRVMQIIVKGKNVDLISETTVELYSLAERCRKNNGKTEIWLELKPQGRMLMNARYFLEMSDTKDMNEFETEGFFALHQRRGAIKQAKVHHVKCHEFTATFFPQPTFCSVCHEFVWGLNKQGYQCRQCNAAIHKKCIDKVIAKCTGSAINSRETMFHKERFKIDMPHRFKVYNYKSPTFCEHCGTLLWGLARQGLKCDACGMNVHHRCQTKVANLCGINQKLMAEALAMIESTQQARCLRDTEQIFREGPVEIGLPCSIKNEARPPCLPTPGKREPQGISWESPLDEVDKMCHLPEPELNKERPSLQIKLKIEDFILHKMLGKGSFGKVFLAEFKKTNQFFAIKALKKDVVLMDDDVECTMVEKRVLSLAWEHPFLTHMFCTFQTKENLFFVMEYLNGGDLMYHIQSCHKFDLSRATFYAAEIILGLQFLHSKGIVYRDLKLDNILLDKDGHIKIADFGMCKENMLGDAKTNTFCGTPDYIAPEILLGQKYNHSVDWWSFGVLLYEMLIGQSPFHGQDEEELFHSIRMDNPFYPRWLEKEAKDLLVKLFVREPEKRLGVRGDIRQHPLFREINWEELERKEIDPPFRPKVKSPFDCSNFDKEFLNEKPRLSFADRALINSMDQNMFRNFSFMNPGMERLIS
# PKC delta kinase, sequence (Q05655 whole entry): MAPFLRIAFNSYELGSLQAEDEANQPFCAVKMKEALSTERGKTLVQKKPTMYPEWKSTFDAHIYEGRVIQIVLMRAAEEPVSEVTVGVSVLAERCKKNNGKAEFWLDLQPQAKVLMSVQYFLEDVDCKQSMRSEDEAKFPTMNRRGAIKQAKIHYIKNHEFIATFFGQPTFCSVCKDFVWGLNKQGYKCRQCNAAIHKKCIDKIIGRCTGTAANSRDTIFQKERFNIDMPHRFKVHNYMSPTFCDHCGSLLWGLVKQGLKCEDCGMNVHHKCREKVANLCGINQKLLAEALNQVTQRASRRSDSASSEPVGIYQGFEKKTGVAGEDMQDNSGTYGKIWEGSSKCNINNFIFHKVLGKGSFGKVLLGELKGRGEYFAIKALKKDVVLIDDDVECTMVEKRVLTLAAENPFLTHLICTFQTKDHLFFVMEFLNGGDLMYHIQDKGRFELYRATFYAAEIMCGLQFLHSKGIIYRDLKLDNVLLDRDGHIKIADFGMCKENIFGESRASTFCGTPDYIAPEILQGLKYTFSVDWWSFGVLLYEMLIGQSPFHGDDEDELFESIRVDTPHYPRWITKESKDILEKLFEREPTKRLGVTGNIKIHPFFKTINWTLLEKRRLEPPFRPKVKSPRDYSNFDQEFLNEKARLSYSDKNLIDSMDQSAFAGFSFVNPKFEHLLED
Compound,Ki (PKC alpha kinase),Ki (PKC delta kinase),Ki (PKC theta kinase)
CC[C@@H]1CN(c2ccc(C(F)(F)F)c(C(=O)c3cccnc3N)n2)C[C@H](C(C)C)N1 [compound 472],> 2.8 µM,> 2.8 µM,0.5 to 2.8 µM
CC(C)(C)OC(=O)N1CCCN(c2nccc(C(=O)c3cccnc3N)n2)CC1 [compound 110],,,0.5 to 2.8 µM
Nc1ncccc1C(=O)c1nc(OCC2(N)CCCC2)ccc1C(F)(F)F [compound 438],> 2.8 µM,0.5 to 2.8 µM,0.5 to 2.8 µM
Cc1ccsc1CN1CCCN(c2cccc(C(=O)c3cc(Br)cnc3N)n2)CC1 [compound 139],,,0.5 to 2.8 µM
CCC[C@H]1CN(c2ccc(C(F)(F)F)c(C(=O)c3cccnc3N)n2)C[C@H](CC(C)C)N1 [compound 493],> 2.8 µM,0.5 to 2.8 µM,0.5 to 2.8 µM
Nc1ncc(Br)cc1C(=O)c1cccc(N2CCCN(Cc3ccccc3)CC2)n1 [compound 99],,,0.5 to 2.8 µM
Cc1ccc(CC(=O)N2CCCN(c3cccc(C(=O)c4cc(Br)cnc4N)n3)CC2)cc1 [compound 74],,,0.5 to 2.8 µM
Nc1ncc(Br)cc1C(=O)c1cccc(N2CCCN(C(=O)Cc3ccccc3)CC2)n1 [compound 72],,,0.5 to 2.8 µM
CC(C)(C)N1CCN(c2cccc(C(=O)c3cccnc3N)n2)CC1 [compound 88],,,0.5 to 2.8 µM
CC(C)C1OC(=O)N2CCN(c3ccc(C(F)(F)F)c(C(=O)c4cccnc4N)n3)CC12 (centres unmarked) [compound 453],> 2.8 µM,> 2.8 µM,0.5 to 2.8 µM
C=Cc1cnc(N)c(C(=O)c2nc(N3CCN[C@@H](CC(C)C)C3)ccc2C(F)(F)F)c1 [compound 487],< 0.05 µM,0.05 to 0.5 µM,
NCC1CCC(CNc2ccc(C(F)(F)F)c(C(=O)c3cccnc3N)n2)CC1 (centres unmarked) [compound 451],> 2.8 µM,> 2.8 µM,
Nc1ncccc1C(=O)c1nc(OCC(N)C2CCOCC2)ccc1C(F)(F)F (centres unmarked) [compound 433],> 2.8 µM,> 2.8 µM,
CC(C)(C)C(=O)N1CCCN(c2cccc(C(=O)c3cc(Br)cnc3N)n2)CC1 [compound 73],,,0.5 to 2.8 µM
Cc1ccoc1C(=O)N1CCCN(c2cccc(C(=O)c3cccnc3N)n2)CC1 [compound 91],,,0.5 to 2.8 µM
CN(C)C1CCN(c2cccc(C(=O)c3cccnc3N)n2)CC1 [compound 137],,,0.5 to 2.8 µM
Nc1ncccc1C(=O)c1nc(NCC2CCC(N)CC2)ccc1C(F)(F)F (centres unmarked) [compound 460],> 2.8 µM,0.5 to 2.8 µM,

Compound,Ki (PKC alpha kinase),Ki (PKC delta kinase),Ki (PKC theta kinase)
CC(C)(C)[C@H](N)COc1ccc(C(F)(F)F)c(C(=O)c2cccnc2N)n1 [compound 422],> 2.8 µM,0.5 to 2.8 µM,
Nc1ncccc1C(=O)c1cccc(N2CCCN(C(=O)Cc3ccccc3Cl)CC2)n1 [compound 29],,,0.5 to 2.8 µM
Nc1ncc(Cl)cc1C(=O)c1nc(N2CCNCC2)ccc1C(F)(F)F [compound 495],< 0.05 µM,0.05 to 0.5 µM,
Nc1ncccc1C(=O)c1cccc(N2CCCN(C(=O)Cc3cccc(O)c3)CC2)n1 [compound 77],,,0.5 to 2.8 µM
CC(C)(C)CC(=O)N1CCCN(c2cccc(C(=O)c3cccnc3N)n2)CC1 [compound 26],,,0.5 to 2.8 µM
CC(C)(CN)CNc1ccc(C(F)(F)F)c(C(=O)c2cccnc2N)n1 [compound 425],0.5 to 2.8 µM,0.05 to 0.5 µM,
CN1CCC(N2CCN(c3cccc(C(=O)c4cc(Br)cnc4N)n3)CC2)CC1 [compound 101],,,0.5 to 2.8 µM
CC(C)C[C@H]1CN(c2ccc(C(F)(F)F)c(C(=O)c3cccnc3N)n2)C[C@H](C)N1 [compound 483],0.5 to 2.8 µM,0.5 to 2.8 µM,
CC(Nc1ccc(C(F)(F)F)c(C(=O)c2cccnc2N)n1)[C@@H](O)c1ccccc1 (some centres unmarked) [compound 430],> 2.8 µM,> 2.8 µM,0.5 to 2.8 µM
N#CCC(=O)N1CCCN(c2cccc(C(=O)c3cccnc3N)n2)CC1 [compound 22],,,0.5 to 2.8 µM
CC(C)(C)OC(=O)NC1CCN(c2cccc(C(=O)c3cc(Br)cnc3N)n2)CC1 [compound 135],,,0.5 to 2.8 µM
Nc1ncc(Br)cc1C(=O)c1cccc(N2CCCN(CCc3ccccc3)CC2)n1 [compound 114],,,0.5 to 2.8 µM
NCC1CCCC(CNc2ccc(C(F)(F)F)c(C(=O)c3cccnc3N)n2)C1 (centres unmarked) [compound 429],> 2.8 µM,0.05 to 0.5 µM,
CC(N)(CNc1ccc(C(F)(F)F)c(C(=O)c2cccnc2N)n1)Cc1ccccc1 (centres unmarked) [compound 452],0.5 to 2.8 µM,0.05 to 0.5 µM,
Nc1ncccc1C(=O)c1cccc(N2CCCN(C(=O)c3cccs3)CC2)n1 [compound 90],,> 2.8 µM,0.5 to 2.8 µM
CC[C@H]1CN(c2ccc(C(F)(F)F)c(C(=O)c3cccnc3N)n2)C[C@H](CC(C)C)N1 [compound 489],> 2.8 µM,0.5 to 2.8 µM,0.5 to 2.8 µM
Nc1ncccc1C(=O)c1nc(NCCO)ccc1C(F)(F)F [compound 423],> 2.8 µM,> 2.8 µM,0.5 to 2.8 µM

# Next, values leading:
Ki (PKC alpha kinase),Ki (PKC delta kinase),Ki (PKC theta kinase),Compound
0.5 to 2.8 µM,0.05 to 0.5 µM,,C=C(F)c1ccc(N2CCN[C@@H](CC(C)(C)F)C2)nc1C(=O)c1cccnc1N [compound 506]
> 2.8 µM,0.5 to 2.8 µM,,Nc1ncccc1C(=O)c1nc(N2CCNC(CC(F)(F)F)C2)ccc1C(F)(F)F (centres unmarked) [compound 491]
> 2.8 µM,> 2.8 µM,,CC(C)(C)C1CN(c2ccc(C(F)(F)F)c(C(=O)c3cccnc3N)n2)CCN1 (centres unmarked) [compound 456]
> 2.8 µM,> 2.8 µM,0.5 to 2.8 µM,CC(C)[C@H]1CN(c2ccc(C(F)(F)F)c(C(=O)c3cccnc3N)n2)C[C@@H](c2ccccc2)N1 [compound 449]
0.5 to 2.8 µM,0.05 to 0.5 µM,,CC(C)(F)CC1CN(c2ccc(C(F)(F)F)c(C(=O)c3cccnc3N)n2)CCN1 (centres unmarked) [compound 464]
0.5 to 2.8 µM,> 2.8 µM,,Cc1ccccc1C(=O)N1CCCN(c2cccc(C(=O)c3cccnc3N)n2)CC1 [compound 89]
0.5 to 2.8 µM,0.05 to 0.5 µM,,CC#Cc1ccc(N2CCN[C@H](c3ccccc3)C2)nc1C(=O)c1cccnc1N [compound 465]
0.5 to 2.8 µM,0.05 to 0.5 µM,,Cc1ccc(-c2ccc(N3CCNC(c4ccccc4)C3)nc2C(=O)c2cccnc2N)o1 (centres unmarked) [compound 469]
> 2.8 µM,0.05 to 0.5 µM,,Cc1ccc(-c2ccc(N3CCNCC3)nc2C(=O)c2cccnc2N)o1 [compound 470]
0.5 to 2.8 µM,0.5 to 2.8 µM,,Cc1ccc(N2CCCNCC2)nc1C(=O)c1cccnc1N [compound 209]
0.5 to 2.8 µM,0.5 to 2.8 µM,,C=Cc1ccc(N2CCN[C@H](c3ccccc3)C2)nc1C(=O)c1cccnc1N [compound 445]
> 2.8 µM,> 2.8 µM,0.5 to 2.8 µM,CC(C)C[C@H]1CN(c2ccc(C#CC(C)(C)O)c(C(=O)c3cccnc3N)n2)CCN1 [compound 467]
> 2.8 µM,0.05 to 0.5 µM,,Nc1ncccc1C(=O)c1nc(N2CCNC(C(F)(F)F)C2)ccc1C(F)(F)F (centres unmarked) [compound 477]
> 2.8 µM,> 2.8 µM,0.5 to 2.8 µM,CCC[C@H]1CN(c2ccc(C(F)(F)F)c(C(=O)c3cccnc3N)n2)C[C@@H](c2ccccc2)N1 [compound 481]
0.5 to 2.8 µM,0.5 to 2.8 µM,,Nc1ncccc1C(=O)c1nc(N2CCN[C@H](c3ccccc3)C2)ccc1C(F)(F)F [compound 447]
> 2.8 µM,> 2.8 µM,0.5 to 2.8 µM,CC(C)C[C@H]1CN(c2cc(C(=O)c3cccnc3N)c(-c3ccco3)cn2)CCN1 [compound 428]
